Reference: US10364216B2, “Alkenyl sulfate ester or salt thereof” (Kao Corporation, priority 2013, dated 2019)
Where a name gives a salt, the structure may show the parent alone. Residues, ends and D or L forms follow the SMILES beside them.

What was measured:
Format in all cases: in vivo, human
[1] = Sweetness adjusting action on sucrose, aspartame, sucralose, glycyrrhizin (simultaneous intake); conditions: sucrose 7.5 wt %, aspartame 494 ppm, sucralose 0.49 mM, glycyrrhizin 303 ppm, alone or containing 5 mM trans-3-octenyl sulfate, scale 0 to 15; for Sweetness intensity (mean) When drinking water after 30 seconds: 10 mL pure water 30 seconds after sample; for Sweetness intensity (mean) When drinking sample: 10 mL
Experimental: To seven examiners, four kinds of 10 mL aqueous sucrose standard solutions (2.5, 5.0, 7.5 and 10.0 wt %) were presented. The examiners kept each of the solutions in their mouth for 5 seconds or so, and then spat the solution out, and were asked to consider the sweetness intensity at that time (0 to 15) to be 2.5, 5, 7.5 and 10, respectively. Next, the examiners kept 10 mL aqueous solution (7.5 wt %) of sucrose in their mouth for 5 seconds or so without knowing the kind and the concentration of the sweetener, and then spat the solution out, and compared the sweetness intensity at that time with that of the aqueous sucrose standard solution, and evaluated the sweetness intensity with a number in a range of 0 to 15. In addition, after 30 seconds, the examiners kept 10 mL pure water in their mouth, and then spat the solution out, and compared the sweetness intensity felt at that time with that of the aqueous sucrose standard solution, and evaluated the sweetness intensity in the same manner. Subsequently, the examiners were presented with 10 mL aqueous sucrose solution containing 5 mM trans-3-octenyl sulfate (7.5 wt %), and kept it in their mouth for 5 seconds or so, and then spat the solution out, and compared the sweetness intensity at that time with the sweetness intensity of the aqueous sucrose standard solution, and evaluated the sweetness intensity in the same manner. In addition, immediately after that, the examiners kept 10 mL pure water in their mouth for 5 seconds or so, and then spat the solution out, and compared the sweetness intensity at that time with that of the aqueous sucrose standard solution, and evaluated the sweetness intensity in the same manner. In addition, after 30 seconds, the examiners kept 10 mL pure water in their mouth, and then spat the solution out, and compared the sweetness intensity felt at that time with that of the aqueous sucrose standard solution, and evaluated the sweetness intensity in the same manner.
To seven examiners, 4 kinds of 10 mL aqueous sucrose standard solutions (2.5, 5.0, 7.5 and 10.0 wt %) were presented. The examiners kept each of the solutions in their mouth for 5 seconds or so, and then spat the solution out, and were asked to consider the sweetness intensity at that time (0 to 15) to be 2.5, 5, 7.5 and 10, respectively. Next, the examiners kept 10 mL aqueous solution of aspartame (494 ppm) in their mouth for 5 seconds or so without knowing the kind and the concentration of the sweetener, and then spat the solution out, and compared the sweetness intensity at that time with that of the aqueous sucrose standard solution, and evaluated the sweetness intensity with a number in a range of 0 to 15. The concentration of aspartame was prepared to have the same sweetness intensity as that of the aqueous sucrose solution (7.5 wt %) in accordance with the reference (Schiffman, S. S. et al. Chemical senses, 1999, 24, 439-447.). In addition, after 30 seconds, the examiners kept 10 mL pure water in their mouth, and then spat the solution out, and compared the sweetness intensity felt at that time with that of the aqueous sucrose standard solution, and evaluated the sweetness intensity in the same manner. Subsequently, the examiners were presented with 10 mL aqueous solution of aspartame containing 5 mM trans-3-octenyl sulfate (494 ppm), and kept it in their mouth for 5 seconds or so, and then spat the solution out, and compared the sweetness intensity at that time with the sweetness intensity of the sucrose standard solution, and evaluated the sweetness intensity in the same manner. In addition, after 30 seconds, the examiners kept 10 mL pure water in their mouth, and then spat the solution out, and compared the sweetness intensity felt at that time with that of the aqueous sucrose standard solution, and evaluated the sweetness intensity in the same manner. […]

[2] = Action of reinforcing sweetness (previous intake of trans-3-octenyl sulfate); conditions: scale 0 to 15, six examiners
Experimental: To six examiners, 4 kinds of 10 mL aqueous solutions of sucrose standard (2.5, 5.0, 7.5 and 10.0 wt %) were presented. The examiners kept each of the solutions in their mouth for 5 seconds or so, and then spat the solution out, and were asked to consider the sweetness intensity at that time (0 to 15) to be 2.5, 5, 7.5 and 10, respectively. Next, the examiners kept 10 mL aqueous solution of sucralose (0.25 mM) in their mouth for 5 seconds or so without knowing the kind and the concentration of the sweetener, and then spat the solution out, and compared the sweetness intensity at that time with that of the aqueous sucrose standard solution, and evaluated the sweetness intensity with a number in a range of 0 to 15. Subsequently, the examiners kept 10 mL solution of 5 mM trans-3-octenyl sulfate in advance in their mouth for 5 seconds or so in advance, and then spat the solution out, and after passage of 60 seconds, the examiners kept 10 mL aqueous solution of sucralose (0.25 mM) in their mouth for 5 seconds or so, and then spat the solution out, and compared the sweetness intensity at that time with that of the aqueous sucrose standard solution, and evaluated the sweetness intensity with a number in a range of 0 to 15.
To six examiners, 4 kinds of 10 mL aqueous sucrose standard solutions (2.5, 5.0, 7.5 and 10.0 wt %) were presented. The examiners kept each of the solutions in their mouth for 5 seconds or so, and then spat the solution out, and were asked to consider the sweetness intensity at that time (0 to 15) to be 2.5, 5, 7.5 and 10, respectively. Next, the examiners kept 10 mL aqueous solution of glycyrrhizin (0.25 mM) in their mouth for 5 seconds or so without knowing the kind and the concentration of the sweetener, and then spat the solution out, and compared the sweetness intensity at that time with that of the aqueous sucrose standard solution, and evaluated the sweetness intensity with a number in a range of 0 to 15. Subsequently, the examiners kept 10 mL solution of 5 mM trans-3-octenyl sulfate in their mouth for 5 seconds or so in advance, and then spat the solution out, and after passage of 60 seconds, the examiners kept 10 mL aqueous solution of glycyrrhizin (0.25 mM) in their mouth for 5 seconds or so, and then spat the solution out, and compared the sweetness intensity at that time with that of the aqueous sucrose standard solution, and evaluated the sweetness intensity with a number in a range of 0 to 15.

[3] = Evaluation of sweetness (1)/(2): presence or absence of sweetness judged by examiners
Experimental: Trans-3-octenyl sulfate was dissolved in water to be 1 wt %, which was taken as a test sample. Six examiners kept 50 μL of the prepared test sample in their mouth, and then drunk some water, and judged for presence or absence of sweetness.
Cis-3-octenyl sulfate was dissolved in water to 1 wt %, which was taken as a test sample. Four examiners kept 50 μL of the prepared test sample in their mouth, and then drunk some water, and judged presence or absence of sweetness.

[4] = Evaluation of sweetness (3)/(4): sweetness intensity over time against sucrose standard solutions
Experimental: (§1) To seven examiners, 4 kinds of 10 mL aqueous sucrose standard solutions (2.5, 5.0, 7.5 and 10.0 wt %) were presented. The examiners kept each of the solutions in their mouth for 5 seconds or so, and then spat the solution out, and were asked to consider the sweetness intensity at that time (0 to 15) to be 2.5, 5, 7.5 and 10, respectively. Next, the examiners kept 10 mL solution of 10 mM trans-3-octenyl sulfate in their mouth for 5 seconds or so, and then spat the solution out, and compared the sweetness intensity at that time with that of the aqueous sucrose standard solution, and evaluated the sweetness intensity with a number in a range of 0 to 15. Then, the examiners kept 10 mL pure water for 5 minutes at an interval of 30 seconds, and then spat the solution out, and evaluated the sweetness intensity at that time in the same manner.
as §1, with “four” for “4”, “cis-3-octenyl” for “trans-3-octenyl”, “water in their mouth” for “water”

[5] = No previous intake of trans-3-octenyl sulfate, 10 mL sweetener 0.25 mM
[6] = Previous intake of 10 mL 5 mM trans-3-octenyl sulfate, 60 seconds before 10 mL sweetener 0.25 mM
[7] = 1 wt % in water, 50 μL kept in mouth, then water (13 ml), six examiners (trans), four examiners (cis)

## OC[C@H]1O[C@H](O[C@]2(CCl)O[C@H](CCl)[C@@H](O)[C@@H]2O)[C@H](O)[C@@H](O)[C@H]1Cl [Sucralose, sucralose]
[1]
  Sweetness intensity (mean) When drinking water after 30 seconds: 0.4
  Sweetness intensity (mean) When drinking sample: 8.4
[2]; [5]
  Sweetness intensity (mean): 7.3
[2]; [6]
  Sweetness intensity (mean): 10.2

## CC1(C)[C@@H](O[C@H]2O[C@H](C(=O)O)[C@@H](O)[C@H](O)[C@H]2O[C@@H]2O[C@H](C(=O)O)[C@@H](O)[C@H](O)[C@H]2O)CC[C@]2(C)[C@H]3C(=O)C=C4[C@@H]5C[C@@](C)(C(=O)O)CC[C@]5(C)CC[C@@]4(C)[C@]3(C)CC[C@@H]12 [Glycyrrhizin, glycyrrhizin]
[1]
  Sweetness intensity (mean) When drinking water after 30 seconds: 3.2
  Sweetness intensity (mean) When drinking sample: 4.1
[2]; [5]
  Sweetness intensity (mean): 3.4
[2]; [6]
  Sweetness intensity (mean): 7.3

## OC[C@H]1O[C@@](CO)(O[C@H]2O[C@H](CO)[C@@H](O)[C@H](O)[C@H]2O)[C@@H](O)[C@@H]1O [Sucrose, sucrose]
[1]
  Sweetness intensity (mean) When drinking water after 30 seconds: 0.1
  Sweetness intensity (mean) When drinking sample: 7.1

## COC(=O)[C@H](Cc1ccccc1)NC(=O)[C@@H](N)CC(=O)O [Aspartame, aspartame] (H-Asp-Phe-OMe)
[1]
  Sweetness intensity (mean) When drinking water after 30 seconds: 1.0
  Sweetness intensity (mean) When drinking sample: 7.1

## CCCC/C=C\CCOS(=O)(=O)O [cis-3-octenyl sulfate]
[3]; [7]
  No sweetness felt (number of examiners): 0
  Sweetness felt (number of examiners): 4
[3]; 1 wt %, 50 μL, then water
  Duration of sweetness: the sweetness lasted for a certain time
[4]; 10 mL of 10 mM solution, then pure water every 30 seconds
  Examiners who recognized the sweetness by virtue of intake of water: seven out of the seven
[4]; 10 mL of 10 mM solution, then pure water every 30 seconds for 5 minutes
  Duration of sweetness: the sweetness lasted for a certain time
[4]; Time 0 minute, 10 mL of 10 mM solution kept 5 seconds, scale 0 to 15 vs sucrose standards, seven examiners
  Sweetness intensity (mean): 0.0
[4]; Time 0.5 minute, on keeping 10 mL pure water, after 10 mM solution, scale 0 to 15
  Sweetness intensity (mean): 1.8
[4]; Time 1 minute, on keeping 10 mL pure water, after 10 mM solution, scale 0 to 15
  Sweetness intensity (mean): 3.2
[4]; Time 1.5 minute, on keeping 10 mL pure water, after 10 mM solution, scale 0 to 15
  Sweetness intensity (mean): 3.4
[4]; Time 2 minute, on keeping 10 mL pure water, after 10 mM solution, scale 0 to 15
  Sweetness intensity (mean): 2.6
[4]; Time 2.5 minute, on keeping 10 mL pure water, after 10 mM solution, scale 0 to 15
  Sweetness intensity (mean): 2.1
[4]; Time 3 minute, on keeping 10 mL pure water, after 10 mM solution, scale 0 to 15
  Sweetness intensity (mean): 1.4
[4]; Time 3.5 minute, on keeping 10 mL pure water, after 10 mM solution, scale 0 to 15
  Sweetness intensity (mean): 1.4
[4]; Time 4 minute, on keeping 10 mL pure water, after 10 mM solution, scale 0 to 15
  Sweetness intensity (mean): 0.9
[4]; Time 4.5 minute, on keeping 10 mL pure water, after 10 mM solution, scale 0 to 15
  Sweetness intensity (mean): 0.5
[4]; Time 5 minute, on keeping 10 mL pure water, after 10 mM solution, scale 0 to 15
  Sweetness intensity (mean): 0.5
